Measurements from US20060014790A1, “Methods of treatment of amyloidosis using spirocyclohexane aspartyl-protease inhibitors” (priority 2004, published 2006).

tested on: A-beta; test: Efficacy of compounds to inhibit A-beta concentration (% inhibition vs vehicle control); type: in vivo, rat; settings: cortex
Method: Efficacious compounds of the present invention are those able to decrease the amount of A-beta produced compared to a control, where beta-secretase mediated cleavage is observed and measured in the absence of the compounds. Detection of efficacy can be by analysis of A-beta levels, for example, by immunoassay, fluorometric or chromogenic assay, HPLC, or other means of detection. The efficacy of the compounds of formula (I) was determined as a percentage inhibition corresponding to A-beta concentrations for tissue treated and untreated with compound.
The invention encompasses compounds of formula (I) that are efficacious.

Compound	Efficacy (% Inhibition, 100 mg/kg) cortex [%]
CC(=O)NC(Cc1cc(F)cc(F)c1)C(O)CNC1(c2cccc(C(C)(C)C)c2)CCC(NO)CC1 (single isomer, unassigned) [195-8 Diastereomer A, N-(4-(1-(3-tert-butylphenyl)-4-(hydroxyamino)cyclohexylamino)-1-(3,5-difluorophenyl)-3-hydroxybutan-2-yl)acetamide]	7
CC(=O)NC(Cc1cc(F)cc(F)c1)C(O)CNC1(c2cccc(C(C)(C)C)c2)CCCCC1 (stereo not drawn) [Example 195-1, N-[3-[1-(3-tert-Butyl-phenyl)-cyclohexylamino]-1-(3,5-difluoro-benzyl)-2-hydroxy-propyl]-acetamide]	62
CC(=O)NC(Cc1cc(F)cc(F)c1)C(O)CNC1(c2cccc(C(C)C)c2)CCC(=O)CC1 (stereo not drawn) [Example 195-2, N-{1-(3,5-Difluoro-benzyl)-2-hydroxy-3-[1-(3-isopropyl-phenyl)-4-oxo-cyclohexylamino]-propyl}acetamide]	47

same assay, conditions: plasma

Compound	Efficacy (% Inhibition, 100 mg/kg) plasma [%]
CC(=O)NC(Cc1cc(F)cc(F)c1)C(O)CNC1(c2cccc(C(C)(C)C)c2)CCC(O)CC1 (single isomer, unassigned) [195-5 Diastereomer A, N-[3-[1-(3-tert-Butyl-phenyl)-4-hydroxy-cyclohexylamino]-1-(3,5-difluoro-benzyl)-2-hydroxy-propyl]-acetamide]	55
CONC1CCC(NCC(O)C(Cc2cc(F)cc(F)c2)NC(C)=O)(c2cccc(C(C)(C)C)c2)CC1 (single isomer, unassigned) [195-7 Diastereomer A, N-(4-(1-(3-tert-butylphenyl)-4-(methoxyamino)cyclohexylamino)-1-(3,5-difluorophenyl)-3-hydroxybutan-2-yl)acetamide]	50
CC(=O)NC(Cc1cc(F)cc(F)c1)C(O)CNC1(c2cccc(C(C)(C)C)c2)CCCCC1 (stereo not drawn) [Example 195-1, N-[3-[1-(3-tert-Butyl-phenyl)-cyclohexylamino]-1-(3,5-difluoro-benzyl)-2-hydroxy-propyl]-acetamide]	50
CC(=O)NC(Cc1cc(F)cc(F)c1)C(O)CNC1(c2cccc(C(C)C)c2)CCC(=O)CC1 (stereo not drawn) [Example 195-2, N-{1-(3,5-Difluoro-benzyl)-2-hydroxy-3-[1-(3-isopropyl-phenyl)-4-oxo-cyclohexylamino]-propyl}acetamide]	59

target: catE / beta-secretase (BACE); test: CatE/BACE selectivity (ratio of IC50 values); type: biochemical; settings: each value is an average of four experimental runs; multiple values = more than one experiment
Method: Selectivity was calculated as a ratio of inhibition (IC50) values in which the inhibition of beta-secretase was compared to the inhibition of other aspartyl proteases.
Selectivity is reported as the ratio of IC50(catE):IC50(BACE).
In the following examples, each value is an average of four experimental runs and multiple values for one compound indicate that more than one experiment was conducted.

Compound	IC50 catE/IC50 BACE
CC(=O)NC1CCC(NCC(O)C(Cc2cc(F)cc(F)c2)NC(C)=O)(c2cccc(C(C)(C)C)c2)CC1 (single isomer, unassigned) [196B-23 Diastereomer A, N-[3-[4-Acetylamino-1-(3-tert-butyl-phenyl)-cyclohexylamino]-1-(3,5-difluoro-benzyl)-2-hydroxy-propyl]-acetamide]	29.5
CC(=O)NC(Cc1cc(F)cc(F)c1)C(O)CNC1(c2cccc(C(C)(C)C)c2)CCC([S+](C)[O-])CC1 (single isomer, unassigned) [196B-24 Diastereomer B, N-(4-(1-(3-tert-butylphenyl)-4-(methylsulfinyl)cyclohexylamino)-1-(3,5-difluorophenyl)-3-hydroxybutan-2yl)acetamide]	3.0
CC(=O)NC(Cc1cc(F)cc(F)c1)C(O)CNC1(c2cccc(C(C)(C)C)c2)CCC([S+](C)[O-])CC1 (single isomer, unassigned) [196B-25 Diastereomer A, N-(4-(1-(3-tert-butylphenyl)-4-(methylsulfinyl)cyclohexylamino)-1-(3,5-difluorophenyl)-3-hydroxybutan-2yl)acetamide]	1.1
CC(=O)NC(Cc1cc(F)cc(F)c1)C(O)CNC1(c2cccc(C(C)(C)C)c2)CCC(O)(CO)CC1 (single isomer, unassigned) [196B-27 Diastereomer B, N-[3-[1-(3-tert-Butyl-phenyl)-4-hydroxy-4-hydroxymethyl-cyclohexylamino]-1-(3,5-difluoro-benzyl)-2-hydroxy-propyl]-acetamide]	>5.3
CC(=O)NC(Cc1cc(F)cc(F)c1)C(O)CNC1(c2cccc(C(C)(C)C)c2)CCC(O)(CO)CC1 (single isomer, unassigned) [196B-28 Diastereomer A, N-[3-[1-(3-tert-Butyl-phenyl)-4-hydroxy-4-hydroxymethyl-cyclohexylamino]-1-(3,5-difluoro-benzyl)-2-hydroxy-propyl]-acetamide]	>7.4
COC(=O)NC1CCC(NCC(O)C(Cc2cc(F)cc(F)c2)NC(C)=O)(c2cccc(C(C)(C)C)c2)CC1 (single isomer, unassigned) [196B-29 Diastereomer A, methyl 4-(3-acetamido-4-(3,5-difluorophenyl)-2-hydroxybutylamino)-4-(3-tert-butylphenyl)cyclohexylcarbamate]	13.1
CC(=O)NC(Cc1cc(F)cc(F)c1)C(O)CNC1(c2cccc(C(C)(C)C)c2)CCC(N(O)C(C)=O)CC1 (single isomer, unassigned) [196B-31 Diastereomer A, N-(4-(3-acetamido-4-(3,5-difluorophenyl)-2-hydroxybutylamino)-4-(3-tert-butylphenyl)cyclohexyl)-N-hydroxyacetamide]	13.0
CC(=O)NC(Cc1cc(F)cc(F)c1)C(O)CNC1(c2cccc(C(C)(C)C)c2)CCC(NS(C)(=O)=O)CC1 (single isomer, unassigned) [196B-35 Diastereomer B, N-(4-(1-(3-tert-butylphenyl)-4-(methylsulfonamido)cyclohexylamino)-1-(3,5-difluorophenyl)-3-hydroxybutan-2-yl)acetamide]	>3.0
CC(=O)NC(Cc1cc(F)cc(F)c1)C(O)CNC1(c2cccc(C(C)(C)C)c2)CCC(NC=O)CC1 (single isomer, unassigned) [196B-36 Diastereomer A, N-(4-(1-(3-tert-butylphenyl)-4-formamidocyclohexylamino)-1-(3,5-difluorophenyl)-3-hydroxybutan-2-yl)acetamide]	26.5
CNC(=O)NC1CCC(NCC(O)C(Cc2cc(F)cc(F)c2)NC(C)=O)(c2cccc(C(C)(C)C)c2)CC1 (single isomer, unassigned) [196B-38 Diastereomer B, 1-(4-(3-acetamido-4-(3,5-difluorophenyl)-2-hydroxybutylamino)-4-(3-tert-butylphenyl)cyclohexyl)-3-methylurea]	>3.5
CNC(=O)NC1CCC(NCC(O)C(Cc2cc(F)cc(F)c2)NC(C)=O)(c2cccc(C(C)(C)C)c2)CC1 (single isomer, unassigned) [196B-39 Diastereomer A, 1-(4-(3-acetamido-4-(3,5-difluorophenyl)-2-hydroxybutylamino)-4-(3-tert-butylphenyl)cyclohexyl)-3-methylurea]	>1.3
CC(=O)NC(Cc1ccc(O)c(F)c1)C(O)CNC1(c2cccc(C(C)C)c2)CCCCC1 (stereo not drawn) [Example 196B-1, N-{1-(3-Fluoro-4-hydroxy-benzyl)-2-hydroxy-3[1-(3-isopropyl-phenyl)-cyclohexylamino]-propyl}-acetamide]	3.2
CC(=O)NC(Cc1cc(F)cc(F)c1)C(O)CNC1(c2cccc(C(C)C)c2)CCC(=O)CC1 (stereo not drawn) [Example 196B-2, N-{1-(3,5-Difluoro-benzyl)-2-hydroxy-3-[1-(3-isopropyl-phenyl)-4-oxo-cyclohexylamino]-propyl}-acetamide]	3.7
CC(=O)NC(Cc1cc(F)cc(F)c1)C(O)CNC1(c2cccc(C(C)(C)C)c2)CCC(C)CC1 (stereo not drawn) [Example 196B-5, N-[3-[1-(3-tert-Butyl-phenyl)-4-methyl-cyclohexylamino]-1-(3,5-difluoro-benzyl)-2-hydroxy-propyl]-acetamide]	3.1
CC(=O)NC(Cc1cc(F)cc(F)c1)C(O)CNC1(c2cccc(-c3ccsc3)c2)CCC(=O)CC1 (stereo not drawn) [Example 196B-10, N-(1-(3,5-difluorophenyl)-3-hydroxy-4-(4-oxo-1-(3-(thiophen-3-yl)phenyl)cyclohexylamino)butan-2-yl)acetamide]	5.6
CC(=O)NC(Cc1cc(F)cc(F)c1)C(O)CNC1(c2cccc(-n3cccn3)c2)CCC2(CC1)OCCO2 (stereo not drawn) [Example 196B-13, N-{1-(3,5-Difluoro-benzyl)-2-hydroxy-3-[8-(3-pyrazol-1-yl-phenyl)-1,4-dioxa-spiro[4.5]dec-8-ylamino]-propyl}-acetamide]	2.5
CC(=O)NC(Cc1cc(F)cc(F)c1)C(O)CNC1(c2cccc(C(C)(C)C)c2)CCN(CCC#N)CC1 (stereo not drawn) [Example 196B-26, N-[3-[4-(3-tert-Butyl-phenyl)-1-(2-cyano-ethyl)-piperidin-4-ylamino]-1-(3,5-difluoro-benzyl)-2-hydroxy-propyl]-acetamide]	1.8
CC(=O)NC(Cc1cc(F)cc(F)c1)C(O)CNC1(c2cccc(C(C)(C)C)c2)CCCN(C)C1 (stereo not drawn) [Example 196B-32, N-(4-(3-(3-tert-butylphenyl)-1-methylpiperidin-3-ylamino)-1-(3,5-difluorophenyl)-3-hydroxybutan-2-yl)acetamide]	>2,0
CC(=O)NC(Cc1cc(F)cc(F)c1)C(O)CNC1(c2cccc(Br)c2)CCC2(CC1)OCCO2 (stereo not drawn) [Example 196B-40, N-[3-[8-(3-Bromo-phenyl)-1,4-dioxa-spiro[4.5]dec-8-ylamino]-1-(3,5-difluoro-benzyl)-2-hydroxy-propyl]-acetamide]	2.8
CC(=O)NC(Cc1cc(F)cc(F)c1)C(O)CNC1(c2cccc(C(C)(C)C)c2)CCC(C#N)CC1 (stereo not drawn) [Example 196B-41, N-[3-[1-(3-tert-Butyl-phenyl)-4-cyano-cyclohexylamino]-1-(3,5-difluoro-benzyl)-2-hydroxy-propyl]-acetamide]	2.5
